According to patent EP0345100A1, “Preparation of PAF receptors and method of quantity determination of PAF” (INSTITUT PASTEUR, priority 1988, dated 1989):

Target: T1, récepteur du PAF (Oryctolagus cuniculus, UniProt G1TEI7)
T1 construct: préparation membranaire de plaquettes de lapin; from tissue; host or cells: rabbit blood platelets, lysed by freeze/thaw, membrane pellet
Experiment: Competitive binding of [³H]PAF to rabbit platelet membrane preparations (radioreceptor assay, vacuum filtration)
Set-up: species or system lapin
Method: - 1 Aliquot de préparation membranaire de plaquettes de lapin (A) - 1 Aliquot de préparation de récepteur du PAF conforme à l'invention (B), - PAF marqué au Tritium, activité spécifique 56 Ci/mmole (DU PONT DE NEMOURS (Boston MA, USA).) - PAF non marqué (BACHEM, Budendorf, Suisse).
Des aliquots de préparations membranaires de plaquettes de lapin (∼100 µg) sont incubés pour un volume final de 200 µl de solution contenant 1 nM de /³H/PAF (15300 cpm) et soit une quantité de PAF non marqué connue (gamme de référence), soit un aliquot de dilution de l'extrait à doser. […]
Les filtres sont placés dans des fioles de comptage avec 4 ml de liquide scintillant (Atomlight NEN). La radioactivité est quantifiée sur compteur à scintillation LKB Rack beta 1214.
La différence entre la quantité de [³H]PAF lié aux membranes en absence et en présence d'un excès de PAF non marqué (1000 x [³H] PAF) est considérée comme liaison spé-cifique maximale (B˙). […]
4.2. […] Le pourcentage de [³H ]PAF lié spécifiquement aux préparations en présence de ces différentes concentrations est déterminé par rapport à la quantité de [³H ]PAF lié spécifiquement en absence de PAF standard non marqué (B/Bo : B : cpm de [³H ]PAF lié aux membranes en pré-sence de PAF standard (liaison non spécifique déduite). Bo : cpm de [³H ]PAF lié aux membranes en absence de PAF standard (liaison non spécifique déduite). […]

T1 sequence (G1TEI7 1-342): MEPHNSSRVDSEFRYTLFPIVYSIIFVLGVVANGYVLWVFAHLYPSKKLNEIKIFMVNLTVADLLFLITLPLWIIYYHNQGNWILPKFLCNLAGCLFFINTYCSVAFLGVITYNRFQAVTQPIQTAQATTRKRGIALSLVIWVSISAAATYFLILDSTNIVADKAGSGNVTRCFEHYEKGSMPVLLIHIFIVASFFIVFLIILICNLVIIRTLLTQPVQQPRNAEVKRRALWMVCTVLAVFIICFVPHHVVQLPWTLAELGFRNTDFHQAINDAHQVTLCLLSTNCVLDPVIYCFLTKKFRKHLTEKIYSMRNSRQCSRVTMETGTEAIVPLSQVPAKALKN

Molecule	ED₅₀ (dose de PAF standard nécessaire pour inhiber 50 % de la liaison spécifique) (1 nM [³H]PAF, + 4° C, 1 heure 30, four experiments taken at random)	reconnaissance par le site de liaison utilisé pour le dosage (dose maximale testée : 10⁻⁶M, Figure 2 (B/Bo))
1-0-alkyl-2-acétyl-sn-glycérol-3-phosphorylcholine [PAF standard]	0,63 + 0,15 ng/tube	–
CCCCCCCCCCCCCCCCOC[C@@H](O)COP(=O)([O-])OCC[N+](C)(C)C [lyso-PAF]	–	ne sont pas reconnus
